Tested on: PANC-1 cells
Test: Quantification of F-2,6-P2 in PANC-1 cells
Format: cell-based
Conditions: Homo sapiens, PANC-1; read-out: IC50 based on quantification of F-2,6-P2
Method in brief: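 Endogenous PFKFB3/PFKFB4 activity in PANC-1 cells, 18 h serum/glucose starvation in glucose-free DMEM/F12 with 0.25% FBS, then 1 h compound preincubation (50 and 10 μM, or dose response from 50 μM; 0.5% DMSO) at 37 °C. Glucose stimulation for 2 h, NaOH lysis, F-2,6-P2 quantified by Van Schaftingen coupled enzymatic assay against in-house standard.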

IC50 | Structure (SMILES)
2.3 µM | Cc1c(S(=O)(=O)Nc2cccc(C(=O)O)c2)sc2ccc(C(C)C)cc12 [Example 5, 3-{[(5-Isopropyl-3-methyl-1-benzothien-2-yl)sulfonyl]amino}benzoic acid]
10.1 µM | Cc1c(S(=O)(=O)Nc2cccc(C(=O)O)c2)sc2ccc(Cl)cc12 [Example 38, 3-{[(5-Chloro-3-methyl-1-benzothien-2-yl)sulfonyl]amino}benzoic acid]

Source: US9233946B2, “Sulfonamide compounds” (KANCERA AB, priority 2010, dated 2016)
